pIC50, pKi: −log10 of the molar value. Counter-ions that a name gives are not always drawn.
Tests used:
[1] = target: NMDA receptor; experiment: [3H]-(+)-MK-801 binding to rat cortical membranes; conditions: for pKi: read-out: MK-801 Ki, Table 9, Cheng-Prusoff with Kd for MK-801 of […]; for pIC50: read-out: [3H] MK-801 IC50, Table 7, footnote calls the values Ki
Description: Male Sprague-Dawley rats (200-250 g) were decapitated and their brains were removed rapidly. The cortex was dissected and homogenized in 20 volumes of ice-cold 0.32 M sucrose using a glass-Teflon homogenizer. The homogenate was centrifuged at 1000 ×g for 10 minutes. The pellet was discarded and the supernatant centrifuged at 20,000 ×g for 20 minutes. The resulting pellet was re-suspended in 20 volumes of distilled water and centrifuged for 20 minutes at 8000 ×g. Then the supernatant and the buffy coat were centrifuged three times (48,000 ×g for 20 minutes) in the presence of 50 mM Tris-HCl, pH 8.0. All centrifugation steps were carried out at 4° C. After resuspension in 5 volumes of 50 mM Tris-HCl, pH 8.0 the membrane suspension was frozen rapidly at -80° C. On the day of assay the membranes were thawed and washed four times by resuspension in 50 mM Tris-HCl, pH 8.0 and centrifugation at 48,000 ×g for 20 minutes. The final pellet was suspended in assay buffer. The amount of protein in the final membrane preparation was determined according to the method of Lowry with some modifications. The final protein concentration used for our studies was between 250-500 μg/ml.
Membranes were re-suspended and incubated in 50 mM Tris-HCl, pH 8.0. […] Incubations were terminated using a Millipore filter system. The samples were rinsed three times with 2.5 ml ice cold assay buffer over glass fiber filters obtained from Schleicher & Schuell under a constant vacuum. Filtration was performed as rapidly as possible. Following separation and rinse, the filters were placed into scintillation liquid (5 ml; Ultima Gold) and radio activity retained on the filters was determined with a conventional liquid scintillation counter (Hewlett Packard, Liquid Scintillation Analyser).
(§1) IC50 s in patch clamp, excitotoxicity, and binding studies were calculated according to the four parameter logistic equation using the Grafit computer program (Erithacus Software, England). Ki value for binding studies were then determined according to Cheng and Prusoff. Binding values presented are means±SEM of 3-5 determinations (each performed in duplicate). […] Pearson product moment correlation analysis (Sigma Stat, Jandel Scientific) was used to compare in vitro potencies and in vivo anticonvulsant activity.

[2] = Traction reflex test (myorelaxant action) in mice, therapeutic index versus MES; type: in vivo; conditions: ED50 for traction reflex impairment divided by ED50 for MES; for TI Tract: 30 min; for selectivity ratio at 0.5 h: mouse, in vivo, ip, read-out: TI Tract
Description: NMR female mice (18-28 g) housed 5 per cage were used for the maximal electroshock (MES) and motor impairment tests. […] All compounds were dissolved in 0.9% saline.
The MES test was performed together with tests for myorelaxant action (traction reflex) and motor coordination (rotarod). For the traction reflex test mice were placed with their forepaws on a horizontal rod and were required to place all 4 paws on the wire within 10 seconds. To test ataxia (motor coordination) mice were placed on rotarod (5 rpm) and were required to remain on the rod for 1 minute. […] These tests were followed by MES (100 Hz, 0.5 second shock duration, 50 mA shock intensity, 0.9 ms impulse duration, Ugo Basile) applied through corneal electrodes. The presence of tonic convulsions was scored (tonic extension of hind paws with minimum angle to the body of 90°). The aim was to obtain ED50 s for all parameters scored (anticonvulsive activity and motor side effects) with use of the Litchfield Wilcoxon test for quantal dose responses. Division of the ED50 for side effects (ataxia or myorelaxation) by the ED50 for antagonism of electroshock convulsions was used as a therapeutic index (TI). […]

[3] = Rotarod test (motor coordination, ataxia) in mice, therapeutic index versus MES; type: in vivo; conditions: ED50 for rotarod failure divided by ED50 for MES; for selectivity ratio at 0.5 h: mouse, in vivo, ip, read-out: TI Rot.; for TI Rot.: 30 min
Description: All compounds were dissolved in 0.9% saline.
The MES test was performed together with tests for myorelaxant action (traction reflex) and motor coordination (rotarod). For the traction reflex test mice were placed with their forepaws on a horizontal rod and were required to place all 4 paws on the wire within 10 seconds. To test ataxia (motor coordination) mice were placed on rotarod (5 rpm) and were required to remain on the rod for 1 minute. […] These tests were followed by MES (100 Hz, 0.5 second shock duration, 50 mA shock intensity, 0.9 ms impulse duration, Ugo Basile) applied through corneal electrodes. The presence of tonic convulsions was scored (tonic extension of hind paws with minimum angle to the body of 90°). The aim was to obtain ED50 s for all parameters scored (anticonvulsive activity and motor side effects) with use of the Litchfield Wilcoxon test for quantal dose responses. Division of the ED50 for side effects (ataxia or myorelaxation) by the ED50 for antagonism of electroshock convulsions was used as a therapeutic index (TI).
as §1, with “Prusoff.” for “Prusoff. Binding values presented are means±SEM of 3-5 determinations (each performed in duplicate).”

[4] = Solubility (analytical certificates); type: physicochemical

SMILES | pKi [1] | pIC50 [1] | TI Tract [2] | selectivity ratio at 0.5 h [3] | selectivity ratio at 0.5 h [2] | Solubility [4] | TI Rot. [3]
C[C@@H]1CC(C)(C)C[C@@](C)(N)C1 (relative stereo) [Mrz 2/607] | 5.11 | 5.09 | 1.3 |  |  |  | 
CCC[C@@]1(C)C[C@H](C)C[C@@](C)(N)C1 (relative stereo) [Mrz 2/618] | 4.62 | 4.49 | 1.2 |  |  |  | 
CCC[C@]1(C)C[C@@H](C)C[C@@](C)(N)C1 (relative stereo) [Mrz 2/619] | 4.24 | 4.14 | 1.0 |  |  |  | 
CC[C@@]1(C)C[C@H](C)C[C@@](C)(N)C1 (relative stereo) [Mrz 2/622] | 4.88 | 4.82 | 1.1 |  |  |  | 
CC[C@]1(C)C[C@@H](C)C[C@@](C)(N)C1 (relative stereo) [Mrz 2/624] | 4.82 | 4.81 | 0.9 |  |  |  | 
C[C@@H]1CCC[C@@](C)(N)C1 (relative stereo) [Mrz 2/625] | 4.28 | 4.33 | 0.5 |  |  |  | 
CCC[C@@H]1CCC[C@@](C)(N)C1 (relative stereo) [Mrz 2/627] | 4.15 | 4.15 | 0.8 |  |  |  | 
CCC[C@H]1CCC[C@@](C)(N)C1 (relative stereo) [Mrz 2/628] | 4.31 | 4.45 | 0.8 |  |  |  | 
CC[C@@H]1CCC[C@@](C)(N)C1 (relative stereo) [Mrz 2/629] | 4.31 | 4.40 | 0.9 |  |  |  | 
CC[C@H]1CCC[C@@](C)(N)C1 (relative stereo) [Mrz 2/630] | 4.31 | 4.35 |  |  |  |  | 
C[C@H]1CCC[C@@](C)(N)C1 (relative stereo) [Mrz 2/631] | 4.19 | 4.16 |  |  |  |  | 
CC[C@H]1CC(C)(C)C[C@@](C)(N)C1 (relative stereo) [Mrz 2/632] | 5.54 | 5.70 | 2.7 |  |  |  | 
CC[C@@H]1CC(C)(C)C[C@@](C)(N)C1 (relative stereo) [Mrz 2/633] | 5.29 | 5.17 | 2.4 |  |  |  | 
CCC[C@@H]1CC(C)(C)C[C@](C)(N)C1 (relative stereo) [Mrz 2/634] | 4.87 | 4.81 |  |  |  |  | 
CCC[C@@H]1CC(C)(C)C[C@@](C)(N)C1 (relative stereo) [Mrz 2/635] | 4.82 | 5.11 | 1.3 |  |  |  | 
C[C@H]1CC(C)(C)C[C@@](C)(N)C1 (relative stereo) [Mrz 2/643] | 5.33 | 5.44 |  | 2.4 | 1.3 |  | 
C[C@@H]1C[C@H](C)C[C@@](C)(N)C1 [MRZ 2/680, 1,trans-3,trans-5-Trimethylcyclohexylamine hydrochloride] | 4.52 |  |  | 1.1 | 0.7 | soluble in water, chloroform | 
C[C@@H]1C[C@H](C)C[C@](C)(N)C1 [MRZ 2/681, 1,cis-3,cis-5-Trimethylcyclohexylamine hydrochloride hydrate] | 4.72 |  |  | 5.8 | 2.1 | soluble in water, chloroform | 
CC[C@H]1CC(C)(C)C[C@](C)(N)C1 [MRZ 2/682, (1R, 5S) trans-3-Ethyl-1,5,5-trimethylcyclohexylamine hydrochloride] | 5.70 |  |  | 3.6 | 2.7 | soluble in chloroform, poor soluble in water | 

SMILES | pKi [1] | pIC50 [1] | TI Tract [2] | selectivity ratio at 0.5 h [3] | selectivity ratio at 0.5 h [2] | Solubility [4] | TI Rot. [3]
CC1(C)CC(N)CC(C)(C)C1 [Mrz 2/557] | 4.70 | 4.75 | 1.0 |  |  |  | 
CC1(C)CC(CN)CC(C)(C)C1.Cl [Mrz 2/580, 3,3,5,5-tetramethylcyclohexylmethylamine hydrochloride] | 4.75 | 4.80 | 1.6 |  |  |  | 
CCC1(N)CC(C)(C)CC(C)(C)C1 [Mrz 2/600, 1-amino-1-ethyl-3,3,5,5-tetramethylcyclohexane] | 5.64 | 5.62 | 0.6 |  |  |  | 
CCCC1(N)CC(C)(C)CC(C)(C)C1 [Mrz 2/601, 1-amino-1-propyl-3,3,5,5-tetramethylcyclohexane] | 5.09 | 5.13 | 1.5 |  |  |  | 1.5
CCCC1(C)CC(C)(C)CC(C)(N)C1 (stereo not shown) [Mrz 2/614] | 4.87 | 4.87 |  | 1.6 | 1.9 |  | 
CCC1(C)CC(C)(C)CC(C)(N)C1 (stereo not shown) [Mrz 2/615, 1-amino-1,3,5,5-tetramethyl-3-ethylcyclohexane] | 5.62 | 5.60 | 2.5 |  |  |  | 
CC1CC(C)CC(C)(N)C1 (stereo not shown) [Mrz 2/616, 1-amino-1,3,5-trimethylcyclohexane] | 4.98 | 4.82 | 1.0 |  |  | soluble in svater, chloroform | 
CCCC1(C)CCCC(C)(N)C1 (stereo not shown) [Mrz 2/617] | 4.42 | 4.29 |  | 1.1 |  |  | 
CCC1(C)CCCC(C)(N)C1 (stereo not shown) [Mrz 2/620] | 4.59 | 4.49 |  | 1.5 | 1.6 |  | 
CC1(C)CCCC(C)(N)C1 (stereo not shown) [Mrz 2/621] | 4.49 | 4.44 |  | 1.5 | 1.8 |  | 
CCC1(CC)CC(C)(C)CC(C)(N)C1 (stereo not shown) [Mrz 2/623, 1-amino-1,5,5-trimethyl-3,3-diethylcyclohexane] | 5.50 | 5.48 | 1.4 |  |  |  | 
CCCC1(CCC)CC(C)(C)CC(C)(N)C1 (stereo not shown) [Mrz 2/626] | 4.78 | 4.94 |  | 1 | 1.1 |  | 
CCNC1(C)CC(C)(C)CC(C)(C)C1 [Mrz 2/639, N-ethyl-1-amino-1,3,3,5,5-pentamethylcyclohexane] | 5.38 | 5.48 | 2.6 |  |  |  | 
CNC1(C)CC(C)(C)CC(C)(C)C1.Cl [Mrz 2/640, N,1,3,3,5,5-hexamethylcyclohexanamine hydrochloride] | 5.32 | 5.43 | 2.3 |  |  |  | 
CC1(N)CCCCC1 [Mrz 2/641] | 3.84 | 3.73 |  |  |  |  | 
CN(C)C1(C)CC(C)(C)CC(C)(C)C1 [Mrz 2/642] | 4.90 | 4.99 | 4.1 |  |  |  | 5.3
CC1(C)CC(CCN)CC(C)(C)C1 [Mrz 2/644] | 5.32 | 5.42 | 0.5 |  |  |  | 
CC(C)(N)CC1CC(C)(C)CC(C)(C)C1 [Mrz 2/645] | 4.22 | 4.07 |  | 0.6 |  |  | 
